From US20140220132A1, “Pharmaceutical Formulation Comprising Compounds of the Jasmonate Family” (priority 2011, published 2014)

Experiment: GC/MS analysis of incorporation of methyl jasmonate into nano carriers (inclusion complexes)
Type: physicochemical
Details: determined by GC
Procedure: The following analysis were performed with GC/MS (gas chromatography/mass spectrometry), showing possible breakages of the elements that are included in the jasmonate family and also inclusion of such elements in several nano carriers such as dendrimers and CDs for comparison of analytical behavior. Used dendrimers was PAMAM (poly amide amine). Cyclodextrin was used as β-cyclodextrin.
Preparation of inclusion complexes was performed according to Rajewski R A, Stella V J pharmaceutical applications of cyclodextrins. 2. In delivering the in vivo drug. J. Pharm Sci 1996; 85 (11):1142-69. Inclusion compounds, or nano/micro carriers with jasmonates, can be prepared through mixing a different concentration from zero from one or more jasmonate compounds with up to a molar proportion equivalent to the host molecule. The preparation process also includes mixing the compound resulting from metabolism of the element of the jasmonate family in a water solution or other solution with acceptable pharmaceutical salts. The resulting solution is agitated until total dissolution of components in solvent. The mixing time is of some hours until the mixture reaches thermodynamic balance. […]

CC/C=C\CC1C(=O)CCC1CC(=O)OC (centres unmarked) [methyl jasmonate]
percentage regarding incorporation of methyl jasmonate within PAMAM dendrimers (carrier PAMAM (poly amide amine) dendrimers): around 95%
percentage regarding incorporation of methyl jasmonate within β-CD (carrier β-cyclodextrin): 98-99%
